Experimental data from patent publication US20180332847A1, “ANTIMICROBIAL METAL CARBOXYLATE-BENZISOTHIAZOLINONE MIXTURES” (Troy Corporation, priority 2017, published 2018).
Read-outs that look alike come from different tables or passages of the source.

Tests used:
[1] = ingredient added at 1 mass % based on total mass of paint
Description: Zinc chloride, zinc formate and zinc acetate were added to the acrylic paint formulation.

Alternaria alternata = experiment: Minimum Inhibitory Concentration (MIC) by spiral plater / spiral gradient endpoint against Alternaria alternata; assay type: cell-based
Description: (§1) Synergistic Index=Qa/QA+Qb/QB [Equation No. 1] • where Qa=the quantity of component A used in a binary mixture that gives the desired effect • QA=the quantity of component A which when used alone gives the desired effect • Qb=the quantity of component B used in a binary mixture that gives the desired effect • QB=the quantity of component B which when used alone gives the desired effect
(§2) Minimum Inhibitory Concentration (“MIC”) for each of the antimicrobial compositions was determined against a test microbe, which in this case was a spore suspension of the fungus Alternaria alternata, with the aid of an Autoplate 4000 spiral plater that is commercially available from Spiral Biotech, Inc., Norwood, Mass., and its accompanying spiral gradient endpoint software (hereinafter referred to as “the SGE software”). The spiral plater automates the normal serial dilution method for determining MICs. Although the details of the SGE software are held confidentially by Spiral Biotech, Inc., they are believed to consistent with the principles set forth in “Measurement of MICs of antibacterial agents by spiral gradient endpoint compared with conventional dilution method” J. H. Paton, H. A. Holt, and M. J. Bywater—Int. J. Exp. Clin. Chemother, 1990.
Spore suspensions for the test microbe were prepared by growing Alternaria alternata on a Difco malt agar slant in an incubator for 1 week at 28° C. Spores were loosened by adding a small amount of buffer solution at pH 7.0 and scraping with a sterile nichrome wire loop. This process was repeated twice. The buffer solution included phosphate buffer and magnesium chloride, and was obtained commercially from Thomas Scientific Company, as Lot #023-0703.
Loosened spores were removed from the slant by aseptically pouring them into a sterile bottle containing 30 ml of the buffer solution and a volume of approximately 40 ml of 6 mm diameter borosilicate glass beads. The bead bottle was shaken to disperse the spores and adjusted to a final liquid volume of 50 ml. For use as a test inoculum, spore density was adjusted in distilled water blanks to that of a 0.5 McFarland nephelometer standard.
(§3) The spiral plater automatically applied 54.3 micro-liters of each antimicrobial composition of interest to the surface of 150 millimeter malt agar plates using an exponential application gradient. The concentration of the antimicrobial concentration was greatest near the center of the Petri plates and decreased toward the edges. Antimicrobial composition gradients were allowed to air dry at room temperature for 1 to 4 hours at 23° C. before inoculation with test microbe. Spiral gradient plates were inoculated by streaking with cotton swabs that had been soaked in test microbe spore suspension. Streaks were applied in a radial pattern, using a paper template generated by the SGE software to guide the application. Eight radii were inoculated per Petri plate. Each radius is considered as one replicated observation.
(§4) Inoculated spiral gradient plates were incubated for 48 hours in an incubator at 28° C. Visible growth of the test microbe developed along the radial streaks and ended where the concentration of the antimicrobial composition was sufficient to prevent growth. This growth endpoint value (expressed in mm as measured from center point of the Petri plate) was used to calculate MIC for the mixture, expressed as parts per million.
Utilizing the procedure described above in Example 1, Minimum Inhibitory Concentration (“MIC”) for each of the antimicrobial compositions was determined against a test microbe, which in this case was a spore suspension of the […] Alternaria alternata.

Klebsiella pneumoniae = experiment: Minimum Inhibitory Concentration (MIC) by spiral plater / spiral gradient endpoint against Klebsiella pneumoniae; assay type: cell-based; conditions: quantity of calcium ethylhexanoate used alone that gives the desired effect
Description: as §1
(§5) Minimum Inhibitory Concentration (“MIC”) for each of the antimicrobial compositions was determined against a test microbe, which in this case was a spore suspension of the fungus Alternaria alternata, with the aid of an Autoplate 4000 spiral plater that is commercially available from Spiral Biotech, Inc., Norwood, Mass., and its accompanying spiral gradient endpoint software (hereinafter referred to as “the SGE software”). […]
(§6) Inoculated spiral gradient plates were incubated for 48 hours in an incubator at 28° C. […] This growth endpoint value (expressed in mm as measured from center point of the Petri plate) was used to calculate MIC for the mixture, expressed as parts per million.
Utilizing the procedure described above in Example 1, Minimum Inhibitory Concentration (“MIC”) for each of the antimicrobial compositions was determined against a test microbe, which in this case was a spore suspension of the bacteria Klebsiella pneumoniae. […]

Pseudomonas aeruginosa = experiment: Minimum Inhibitory Concentration (MIC) by spiral plater / spiral gradient endpoint against Pseudomonas aeruginosa; assay type: cell-based; conditions: 3 1:3, 4,5 1:1, 6 3:1, 7,8 1:0
Description: as §1, §2, §3, §4
Utilizing the procedure described above in Example 1, Minimum Inhibitory Concentration (“MIC”) for each of the antimicrobial compositions was determined against a test microbe, which in this case was a spore suspension of the bacterium Pseudomonas aeruginosa. Several antimicrobial compositions containing calcium gluconate, BIT, or both in water were investigated, as shown below in Table 7.
Utilizing the procedure described above in Example 1, Minimum Inhibitory Concentration (“MIC”) for each of the antimicrobial compositions was determined against a test microbe, which in this case was a […] Pseudomonas aeruginosa. Several antimicrobial compositions containing calcium glycerate, BIT, or both in water were investigated, as shown below in Table 13.
Utilizing the procedure described above in Example 1, Minimum Inhibitory Concentration (“MIC”) of certain antimicrobial compositions was determined against a test microbe, which in this case was a spore suspension of the bacterium Pseudomonas aeruginosa. Several antimicrobial compositions containing zinc gluconate, BIT, or both in water were investigated, as shown below in Table 19.

Candida albicans = experiment: Minimum Inhibitory Concentration (MIC) by spiral plater / spiral gradient endpoint against Candida albicans; assay type: cell-based; conditions: for MIC (ppm) for Candida albicans: 3 1:3, 4,5 1:1, 6 3:1, 7,8 1:0; for QA: used for SI
Description: as §1, §2, §3, §4
Utilizing the procedure described above in Example, Minimum Inhibitory Concentration (“MIC”) for each of the antimicrobial compositions was determined against a test microbe, which in this case was a spore suspension of the yeast Candida albicans., as described above in Example 1. Several antimicrobial compositions containing calcium gluconate, BIT, or both in water were investigated, as shown below in Table 3
Utilizing the procedure described above in Example 1, Minimum Inhibitory Concentration (“MIC”) for each of the antimicrobial compositions was determined against a test microbe, which in this case was a spore suspension of the yeast Candida albicans. Several antimicrobial compositions containing calcium glycerate, BIT, or both in water were investigated, as shown below in Table 11.
Utilizing the procedure described above in Example 1, Minimum Inhibitory Concentration (“MIC”) for antimicrobial compositions was determined against a test microbe, which in this case was a spore suspension of the yeast Candida albicans. Several antimicrobial compositions containing calcium glycerate, BIT, or both in water were investigated, as shown below in Table 23.
Utilizing the procedure described above in Example 1, Minimum Inhibitory Concentration (“MIC”) for each of the antimicrobial compositions was determined against a test microbe, which in this case was a spore suspension of the fungus Candida Albicans.

Saccharomyces cervisiae = experiment: Minimum Inhibitory Concentration (MIC) by spiral plater / spiral gradient endpoint against Saccharomyces cervisiae; assay type: cell-based; conditions: aqueous calcium gluconate-BIT compositions; MassCG:MassBIT: Trials 1,2 0:1; 3 1:3; 4,5 1:1; 6 3:1; 7,8 1:0
Description: as §1, §5, §6
Utilizing the procedure described above in Example 1, Minimum Inhibitory Concentration (“MIC”) for each of the antimicrobial compositions was determined against a test microbe, which in this case was a spore suspension of the yeast Saccharomyces cervisiae. […]

[2] = tested on: mixed bacterial inoculum: Pseudomonas aeruginosa (ATCC #10145), Escherichia coli (ATCC #11229), Enterobacter aerogenes (ATCC #13048), Alcaligenes faecalis …; experiment: Two-part bacterial challenge of acrylic latex paint samples with a mixed inoculum (performance ratings); assay type: cell-based; set-up: key to Performance Ratings Week 1, 1 Day / Performance Ratings Week 1, 2 Days / Performance Ratings Week 1, 8 Days / Performance Ratings Week 2, 1 Day / Performance Ratings Week 2, 2 Days / Performance Ratings Week 2, 8 Days: 0: No bacterial growth; 1: Trace of bacterial growth; 2: Light bacterial growth; 3: Moderate bacterial growth; 4: Heavy bacterial growth
Description: In order to quantify the antibacterial effectiveness of an antimicrobial composition of interest, samples were prepared by adding various amounts of the antimicrobial composition to identical volumes of a paint that contained no preservatives and was not contaminated by bacteria. In this case, the test sample was a white, aqueous-based, acrylic latex paint. The paint included an acrylic resin, and conventional additives such as surfactant, thickener, defoamer, and titanium oxide.
The samples of the paint were subjected to a two-part challenge procedure and the sample that provided acceptable anti-bacterial protection with the lowest concentration of the antimicrobial composition was identified. Each part of the anti-bacterial challenge consisted of a 7-day test cycle. The parts were performed consecutively over 14 test days.
Challenge testing was accomplished using a mixed bacterial inoculum as the contamination event. These bacteria are Pseudomonas aeruginosa (ATCC #10145), Escherichia coli (ATCC #11229), Enterobacter aerogenes (ATCC #13048), and Alcaligenes faecalis (ATCC #25094). To prepare the test inoculum, each type of bacteria was harvested separately in nutrient broth. Just before use in the challenge test, equal strengths of each bacterial culture were mixed to obtain an inoculum of approximately 10^8 colony forming units per milliliter (cfu/mL).
After incubation, both control blanks and samples containing preservatives of interest were inoculated with the mixed inoculum to a final of 1.0 weight %. […]
Performance ratings of 0, 1, 2, 3 or 4 for each inoculated paint sample were determined by visual inspection of the streak lines, according to the definitions set forth below in Table 25.

Escherichia coli = experiment: Minimum Inhibitory Concentration (MIC) by spiral plater / spiral gradient endpoint against Escherichia coli; assay type: cell-based; conditions: MIC of zinc gluconate alone for Escherichia coli (average of Trials 7, 8), used for SI
Description: as §1, §2
The spiral plater automatically applied 54.3 micro-liters of each antimicrobial composition of interest to the surface of 150 millimeter malt agar plates using an exponential application gradient. The concentration of the antimicrobial concentration was greatest near the center of the Petri plates and decreased toward the edges. […]
as §6
Utilizing the experimental procedure described above in Example 1, the MIC against Escherichia coli of several antibacterial compositions containing zinc gluconate, BIT, or both in water were determined.

Staphylococcus aureus = experiment: Minimum Inhibitory Concentration (MIC) by spiral plater / spiral gradient endpoint against Staphylococcus aureus; assay type: cell-based
[3] = aqueous calcium glycerate-BIT compositions, MassCGLY:MassBIT: Trials 1,2 0:1
[4] = aqueous calcium gluconate-BIT compositions, MassCG:MassBIT: Trials 1,2 0:1
[5] = zinc glycerate (without BIT), zinc glycerate-BIT series

Compound: [Cl-].[Cl-].[Zn+2] [Zinc chloride]
- Observation (viscosity of conventional acrylic paint) [1]: Paint gelled immediately
- Observation (viscosity of conventional acrylic paint) ([1]; listed as zinc chloride): caused the paint to gel

Compound: calcium ethylhexanoate
- QA (Alternaria alternata; quantity of calcium ethylhexanoate used alone that gives the desired effect (average of two trials), Alternaria alternata): 7.5 ppm
- QA (Klebsiella pneumoniae): 7.5 ppm

Compound: calcium glycerate
- MIC (ppm) for Alternaria alternata (Alternaria alternata; aqueous calcium glycerate-BIT compositions, MassCGLY:MassBIT: Trials 1,2 0:1, 3 1:3, 4,5 1:1, 6 3:1, 7,8 1:0): > 788 ppm
- MIC (ppm) for Pseudomonas aeruginosa (Pseudomonas aeruginosa; [3]): > 1230 ppm
- MIC (ppm) for Candida albicans (Candida albicans; [3]): > 768 ppm

Compound: CC(=O)[O-].CC(=O)[O-].[Zn+2] [Zinc acetate]
- Observation (viscosity of conventional acrylic paint) [1]: Paint gelled after mixing for
- Observation (viscosity of conventional acrylic paint) ([1]; listed as zinc acetate): caused the paint to gel

Compound: O=C[O-].O=C[O-].[Zn+2] [Zinc formate]
- Observation (viscosity of conventional acrylic paint) [1]: Paint gelled immediately
- Observation (viscosity of conventional acrylic paint) ([1]; listed as zinc formate): caused the paint to gel

Compound: calcium gluconate
- MIC (ppm) for Saccharomyces cervisiae (Saccharomyces cervisiae): > 768 ppm
- MIC (ppm) for Pseudomonas aeruginosa (Pseudomonas aeruginosa; [4]): > 1127 ppm
- MIC (ppm) for Pseudomonas aeruginosa (Pseudomonas aeruginosa; aqueous zinc gluconate-BIT compositions, MassZG:MassBIT: Trials 1,2 0:1): > 2300 ppm
- MIC (ppm) for Candida albicans (Candida albicans; [4]): > 768 ppm

Compound: zinc ethylhexanoate
- QA (Alternaria alternata; MIC of zinc ethylhexanoate alone for Alternaria alternata, used for SI): >780 ppm
- amount required to prevent growth of Alternaria alternata (MIC) (Alternaria alternata; zinc ethylhexanoate (without BIT), average of two trials): > 780 ppm
- QA (Candida albicans; MIC of zinc ethylhexanoate alone for Candida albicans): >780 ppm

Compound: zinc gluconate
- Performance Ratings Week 1, 1 Day ([2]; 5000 ppm in acrylic latex paint, Week 1, 1 Day after inoculation): 4
- Performance Ratings Week 1, 2 Days ([2]; 5000 ppm in acrylic latex paint, Week 1, 2 Days after inoculation): 4
- Performance Ratings Week 1, 8 Days ([2]; 5000 ppm in acrylic latex paint, Week 1, 8 Days after inoculation): 4
- Performance Ratings Week 2, 1 Day ([2]; 5000 ppm in acrylic latex paint, Week 2, 1 Day after inoculation): 4
- Performance Ratings Week 2, 2 Days ([2]; 5000 ppm in acrylic latex paint, Week 2, 2 Days after inoculation): 4
- Performance Ratings Week 2, 8 Days ([2]; 5000 ppm in acrylic latex paint, Week 2, 8 Days after inoculation): 4
- bacterial stability test ([2]; conventional latex paint with 5000 ppm of zinc gluconate added, mixed inoculum, two 7-day cycles): fails
- QA (Escherichia coli): 565 ppm

Compound: zinc glycerate
- QA (Staphylococcus aureus; MIC of zinc glycerate alone for Staphylococcus aureus, used for SI): >1283 ppm
- MIC for Staphylococcus aureus (Staphylococcus aureus; [5]): > 768 ppm
- QA (Alternaria alternata; MIC of zinc glycerate alone for Alternaria alternata, used for SI): >788 ppm
- MIC for Alternaria alternata (Alternaria alternata; [5]): > 768 ppm
- QA (Candida albicans; MIC of zinc glycerate alone for Candida albicans): >768 ppm
- MIC for Candida albicans (Candida albicans; metal carboxylate without BIT, zinc ethylhexanoate-BIT series (Example 16, Table 31)): > 780 ppm
- MIC for Candida albicans (Candida albicans; [5]): > 768 ppm
